In US20210230159A1, “4H-PYRIDO[1,2-A]PYRIMIDIN-4-ONE COMPOUNDS” (Prana Biotechnology Limited, priority 2014, published 2021):
pIC50: −log10 of the molar value.

Assay: Hydrogen peroxide (H2O2) inhibition assay (fluorescence, DCF/horseradish peroxidase)
Type: biochemical
Conditions: for pIC50: HCl salt tested where HCl salt MW is given; for Fe-ASC % (cf. 0.4 uM Fe/Asc; cf. CQ, CQ = 100%) / Cu % ASC (cf. CQ = 100%) / Zn % ASC (cf. CQ = 100%): ascorbic acid as reducing substrate; for Fe-ASC % (cf. 0.4 uM Fe/Asc; cf. CQ, CQ = 100%) / Fe-DA % (cf. 0.4 uM Fe/DA; cf. CQ, CQ = 100%): test compound 0.4 μM, lower values = greater inhibition of H2O2; for Fe-DA % (cf. 0.4 uM Fe/DA; cf. CQ, CQ = 100%): dopamine as reducing substrate
Method: Assay 1. Hydrogen Peroxide Assay
H2O2 is a strong oxidizer and a highly reactive oxygen species that is known to be toxic to surrounding proteins and organelles, inhibiting their function. […] […] H2O2 generated by the system is assessed by measuring the specific fluorescence profile at the excitation and emission wavelengths of 485 and 530 nm respectively, in the presence of test compound. Test compounds were dissolved in DMSO and tested at concentrations of 0.4 μM. Test compounds are ranked according to their capacity to inhibit H2O2 generated by the system where lower values reflect greater ability to inhibit H2O2 production.

Row | pIC50 | Fe-ASC % (cf. 0.4 uM Fe/Asc; cf. CQ, CQ = 100%) [% ASC] | Fe-DA % (cf. 0.4 uM Fe/DA; cf. CQ, CQ = 100%) [%] | Cu % ASC (cf. CQ = 100%) | Zn % ASC (cf. CQ = 100%) | Structure (SMILES)
1 | 6.46 | 105 | 55 |  |  | CN(Cc1cccc(F)c1)Cc1cc(=O)n2cccc(O)c2n1 [Compound 1517]
2 | 6.33 | 71 | 71 |  |  | O=C(NCc1ccc(F)cc1F)c1cnc2c(O)cccn2c1=O [Compound 1437]
3 | 6.85 |  |  |  |  | O=c1cc(CNCc2ccc(F)cc2)nc2c(O)cccn12 [Compound 1409]
4 | 5.77 | 36 |  |  |  | CCN1CCN(Cc2cc(=O)n3cccc(O)c3n2)CC1 [Compound 1402]
5 | 6.44 | 171 | 42 |  |  | Cc1ccc(O)c2nc(CN(C)Cc3ccc(F)cc3)cc(=O)n12 [Compound 1500]
6 | 6.37 |  | 75 | Cu 212% ASC | Zn 74% ASC | O=C(NCC1CC1)c1cnc2c(O)cccn2c1=O [Compound 1428]
7 |  |  |  | Cu 213% ASC | Zn 129% ASC | CCCc1cnc2c(O)c(-c3c(C)noc3C)c(Cl)cn2c1=O [Compound 1630]
8 | 6.64 | 122 | 46 |  |  | CN(CCc1ccccn1)Cc1cc(=O)n2cccc(O)c2n1 [Compound 1476]
9 |  |  |  | Cu 17% ASC | Zn 140% ASC | CC(C)c1cnc2c(O)c(-c3cnn(C)c3)ccn2c1=O [Compound 1633]
10 | 6.51 | 160 | 33 |  |  | Cc1ccc(O)c2nc(CNCCc3ccccn3)cc(=O)n12 [Compound 1504]
11 | < 5.00 | 161 | 48 |  |  | CC1CCN(Cc2cc(=O)n3cccc(O)c3n2)CC1 [Compound 1506]
12 | 6.89 | 29 |  |  |  | O=c1cc(CNCCN2CCCC2)nc2c(O)cccn12 [Compound 1417]
13 | 6.28 | 159 | 57 |  |  | CCCCN(C)Cc1cc(=O)n2cccc(O)c2n1 [Compound 1485]
14 | 6.62 | 143 | 47 |  |  | CCCCCCNCc1cc(=O)n2cccc(O)c2n1 [Compound 1438]
15 | < 5.00 | 156 | 68 |  |  | CCN(CC)Cc1cc(=O)n2cccc(O)c2n1 [Compound 1439]
16 | 6.00 | 103 | 54 |  |  | O=c1cc(CN2CCN(Cc3ccccc3F)CC2)nc2c(O)cccn12 [Compound 1515]
17 | 6.62 | 30 |  |  |  | O=c1cc(CNCCN2CCOCC2)nc2c(O)cccn12 [Compound 1418]
18 | 6.23 | 158 | 73 |  |  | COc1ccc(CNCc2cc(=O)n3cccc(O)c3n2)cc1OC [Compound 1463]
19 | 6.05 |  |  |  |  | O=C(c1cnc2c(O)cccn2c1=O)N1CCCC1 [Compound 1532]
20 | 6.42 | 45 |  |  |  | CCCNC(=O)c1cnc2c(O)cccn2c1=O [Compound 1423]
21 | 6.48 | 110 | 48 |  |  | O=c1cc(CNCc2ccc(F)c(F)c2)nc2c(O)cccn12 [Compound 1459]

Row | Structure (SMILES) | pIC50 | Fe-ASC % (cf. 0.4 uM Fe/Asc; cf. CQ, CQ = 100%) [% ASC] | Fe-DA % (cf. 0.4 uM Fe/DA; cf. CQ, CQ = 100%) [%] | Cu % ASC (cf. CQ = 100%) | Zn % ASC (cf. CQ = 100%)
22 | O=C(NC1CCCCC1)c1cnc2c(O)cccn2c1=O [Compound 1460, N-cyclohexyl-9-hydroxy-4-oxo-4H-pyrido[1,2-a]pyrimidine-3-carboxamide] | 6.36 | 92 | 29 |  | 
